What is called IC50 is the concentration that gives 50% inhibition.

One data set relates to malignant breast tumors. The note with it: cited from earlier work.
For a further data set, the target named is T1, Human thrombin (Homo sapiens, UniProt P00734).
T1 construct: purchased Haematologic Technologies Inc
The data set is described as follows: Thrombin protease activity inhibition, chromogenic substrate S-2238. The class given is biochemical. The following applies: 3 nM thrombin, 125 μM S-2238, 10 min pre-incubation, RT. The method in brief: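 Thrombin at 3 nM final in 0.05 M Tris pH 7.4, 0.015 M NaCl, 0.01% PEG-8000, at room temperature; compounds as ten-point three-fold dilutions.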

Structures are written as SMILES. Where a name gives a salt, the structure may show the parent alone.

As to `CCCCCCOC(=O)NC(=N)c1ccc(NCc2nc3cc(C(=O)N(CCC(=O)OCC)c4ccccn4)ccc3n2C)cc1` [dabigatran etexilate], the “reduction in tumor volume” value in the data set on malignant breast tumors (at 4 weeks, treated mice) is 50%. In addition, the “weight loss in treated mice” value in the data set on malignant breast tumors (at 4 weeks) is listed as “no weight loss”. Further, the “reduction of tumor cells in the blood and liver micrometastases” value with malignant breast tumors (treated mice) is 50-60%.
In the case of `C=CCOC(=O)N1CCCC1c1cc(NCc2ccc(Cl)s2)n(C(=O)C(C)(C)C)n1` (stereo not drawn) [Entry 247, prop-2-en-1-yl 2-(5-[(5-chlorothiophen-2-yl)methyl]amino-1-(2,2-dimethylpropanoyl)-1H-pyrazol-3-yl)pyrrolidine-1-carboxylate], on Human thrombin, the IC50 is less than 100 nM.
Turning to `COc1ccccc1C(=O)n1nc(C2(C)CCCN2C(=O)OC(C)(C)C)cc1NCc1ccc(Cl)s1` (stereo not drawn) [Entry 272, tert-butyl 2-(5-[(5-chlorothiophen-2-yl)methyl]amino-1-(2-methoxybenzoyl)-1H-pyrazol-3-yl)-2-methylpyrrolidine-1-carboxylate], the IC50 against Human thrombin lay in the range of 1000 to 10000 nM.
The compound `CS(=O)(=O)N1C2CCC1CC(c1cc(NCc3ccc(Cl)s3)[nH]n1)C2` (stereo not drawn) [Entry 226, N-[(5-chlorothiophen-2-yl)methyl]-3-8-methanesulfonyl-8-azabicyclo[3.2.1]octan-3-yl-1H-pyrazol-5-amine] showed an IC50 against Human thrombin of more than 100000 nM.
`O=C(CN1CCOCC1)N1CCC(c2cc(NCc3ccc(Cl)s3)[nH]n2)CC1` [Entry 103, 1-[4-(5-[(5-chlorothiophen-2-yl)methyl]amino-1H-pyrazol-3-yl)piperidin-1-yl]-2-(morpholin-4-yl)ethan-1-one] showed an IC50 against Human thrombin of more than 100000 nM.
The compound `COc1ccccc1C(=O)n1nc(C2(C)CCCN(C(=O)OC(C)(C)C)C2)cc1NCc1ccc(Cl)s1` (stereo not drawn) [Entry 280, tert-butyl 3-(5-[(5-chlorothiophen-2-yl)methyl]amino-1-(2-methoxybenzoyl)-1H-pyrazol-3-yl)-3-methylpiperidine-1-carboxylate] showed an IC50 at Human thrombin of less than 100 nM.
On the same count and under the same terms, under `CC(C)(CO)C(=O)n1nc(C2(C)CCCNC2=O)cc1NCc1ccc(Cl)s1` (stereo not drawn) [Entry 119, 3-(5-[(5-chlorothiophen-2-yl)methyl]amino-1-(3-hydroxy-2,2-dimethylpropanoyl)-1H-pyrazol-3-yl)-3-methylpiperidin-2-one] stands 100 to 1000 nM; under `COc1ccccc1C(=O)n1nc(C2CCCN2C(=O)OC(C)(C)C)cc1NCc1ccc(Cl)s1` (stereo not drawn) [Entry 273, tert-butyl 2-(5-[(5-chlorothiophen-2-yl)methyl]amino-1-(2-methoxybenzoyl)-1H-pyrazol-3-yl)pyrrolidine-1-carboxylate], 1000 to 10000 nM.
For `O=C(c1ccccc1)n1nc(C2CCNCC2)cc1NCc1ccc(Cl)s1` [Entry 105, 1-benzoyl-N-[(5-chlorothiophen-2-yl)methyl]-3-(piperidin-4-yl)-1H-pyrazol-5-amine hydrochloride], the IC50 at Human thrombin lay within 100 to 1000 nM.
Same read-out and setting: under `COc1ccccc1C(=O)n1nc(C2(C)CCCNC2)cc1NCc1ccc(Cl)s1` (stereo not drawn) [Entry 153, N-[(5-chlorothiophen-2-yl)methyl]-1-(2-methoxybenzoyl)-3-(3-methylpiperidin-3-yl)-1H-pyrazol-5-amine] stands 1000 to 10000 nM.
Turning to `CC(C)(C)C(=O)N1CC(c2cc(NCc3ccc(Cl)s3)[nH]n2)C1` [Entry 97, 1-[3-(5-[(5-chlorothiophen-2-yl)methyl]amino-1H-pyrazol-3-yl)azetidin-1-yl]-2,2-dimethylpropan-1-one], the IC50 at Human thrombin was more than 100000 nM.
For `CC(C)(C)OC(=O)N1CCCC(C)(c2cc(NCc3ccc(Cl)s3)n(C(=O)C3(C)CCOCC3)n2)C1` (stereo not drawn) [Entry 286, tert-butyl 3-(5-[(5-chlorothiophen-2-yl)methyl]amino-1-(4-methyloxane-4-carbonyl)-l H-pyrazol-3-yl)-3-methylpiperidine-1-carboxylate], at Human thrombin, the IC50 is 100 to 1000 nM.
The same measure, in the same setting: then `O=C(c1ccsc1)n1nc(C2CCCO2)cc1NCc1ccc(Cl)s1` (stereo not drawn) [Entry 183, N-[(5-chlorothiophen-2-yl)methyl]-3-(oxolan-2-yl)-1-(thiophene-3-carbonyl)-1H-pyrazol-5-amine], with less than 100 nM.
Compound `CC(C)(C)OC(=O)N1CCC(C)(c2cc(NCc3ccc(Cl)s3)n(C(=O)c3ccsc3)n2)CC1` [Entry 300, tert-butyl 4-(5-[(5-chlorothiophen-2-yl)methyl]amino-1-(thiophene-3-carbonyl)-1H-pyrazol-3-yl)-4-methylpiperidine-1-carboxylate] showed an IC50 at Human thrombin of less than 100 nM.
Same read-out and setting: then `CC(C)(C)OC(=O)N1CCC(C)(c2cc(NCc3ccc(Cl)s3)n(C(=O)C(C)(C)CO)n2)CC1` [Entry 296, tert-butyl 4-(5-[(5-chlorothiophen-2-yl)methyl]amino-1-(3-hydroxy-2,2-dimethylpropanoyl)-1H-pyrazol-3-yl)-4-methylpiperidine-1-carboxylate], with less than 100 nM; and `Cc1c(C2CCN(C(=O)N3CCOCC3)CC2)n[nH]c1NCc1ccc(Cl)s1` [Entry 237, N-[(5-chlorothiophen-2-yl)methyl]-4-methyl-3-[1-(morpholine-4-carbonyl)piperidin-4-yl]-1H-pyrazol-5-amine], with 10000 to 100000 nM; and `CC(C)(C)OC(=O)N1CCCC1(C)c1cc(NCc2ccc(Cl)s2)n(C(=O)C(C)(C)CO)n1` (stereo not drawn) [Entry 274, tert-butyl 2-(5-[(5-chlorothiophen-2-yl)methyl]amino-1-(3-hydroxy-2,2-dimethylpropanoyl)-1H-pyrazol-3-yl)-2-methylpyrrolidine-1-carboxylate], with 100 to 1000 nM.
Take `CC1(c2cc(NCc3ccc(Cl)s3)n(C(=O)c3ccsc3)n2)CCNCC1` [Entry 180, N-[(5-chlorothiophen-2-yl)methyl]-3-(4-methylpiperidin-4-yl)-1-(thiophene-3-carbonyl)-1H-pyrazol-5-amine]: on Human thrombin, the IC50 fell in the range of 1000 to 10000 nM.
Same read-out and setting: then `O=C(N1CCOCC1)N1CCC(c2cc(NCc3ccc(Cl)s3)n(C(=O)c3cscn3)n2)C1` (stereo not drawn) [Entry 205, N-[(5-chlorothiophen-2-yl)methyl]-3-[1-(morpholine-4-carbonyl)pyrrolidin-3-yl]-1-(1,3-thiazole-4-carbonyl)-1H-pyrazol-5-amine], with less than 100 nM.

These data come from patent US10532995B2, “Substituted pyrazole compounds as serine protease inhibitors” (VERSEON CORPORATION, priority 2015, dated 2020).
